Test results published in the NIST ThermoML archive (doi:10.1021/acs.jced.6b00680).

What was measured:
[1] = an = ratio of the nth substance listed; settings: 100 kPa, Liquid, Concentric cylinders viscometry
[2] = 101.33 kPa, Liquid, Concentric cylinders viscometry

C[N+](C)(C)CCO.[Cl-] [choline chloride] + OCCO
[1], a2 = 2
Settings | viscosity [mPa·s]
293.2 K | 60.9
298.2 K | 51.4
303.2 K | 44.3
308.2 K | 38.1
313.2 K | 33.5
318.2 K | 29.4
323.2 K | 26.1
328.2 K | 23.3
333.2 K | 21.1
338.2 K | 19.3
343.2 K | 17.6
348.2 K | 16.3
353.2 K | 15.2

OCC(O)CO [glycerol]
[2]
Settings | viscosity [mPa·s]
296.5 K | 1252
302.8 K | 673.4
315.8 K | 260.6
323.2 K | 148.9
332.7 K | 97.5
343.2 K | 51.9
348.2 K | 42.8
354.2 K | 34.9

NC(N)=O [urea] + C[N+](C)(C)CCO.[Cl-]
[1], a1 = 2
Settings | viscosity [mPa·s]
293.2 K | 1685.8
298.2 K | 1012.3
303.2 K | 658.5
308.2 K | 454.9
313.2 K | 333.6
318.2 K | 259.8
323.2 K | 210.6
328.2 K | 179.5
333.2 K | 160.8
338.2 K | 142.6
343.2 K | 129
348.2 K | 115.6
353.2 K | 106.7
